Experimental data published in patent publication US11352358B2, “FXR agonist” (XUANZHU BIOPHARMACEUTICAL CO., LTD., priority 2017, dated 2022).

Assays:
SHP mRNA in HepG2 cells = experiment: Relative expression of SHP mRNA in HepG2 cells, EC50 (Experimental Example 3); assay type: cell-based; settings: Homo sapiens, 24 hrs
Procedure: (§1) compounds of the present invention (for their chemical names and preparation methods, see the preparation example for each compound).
(§2) HepG2 cell: human liver cancer cell;
SHP: small heterodimer partner;
(§3) Control: compound 1-1B with a structure shown as follows, prepared according to a prior art method (for detailed information, see patent application WO2012087519A1).
(§4) Cells were digested with pancreatin and collected, and the concentration of the cells was determined; according to the counting result, the cells were resuspended to a density of 7.5×10^5 cells/mL; 2 mL of the cell suspension was inoculated in each well of a 6-well cell culture plate; and the culture plate was placed in an incubator and cultured under the conditions of 37° C. and 5% CO2 for 24 hrs.
(§5) The compounds were diluted to 3000, 1000, 200, 8, 1.6, 0.32, 0.0128, 0.00256 and 0.000512 μM with DMSO. Compound solutions of different concentrations obtained in the previous step were further diluted by 1,000 times with media to obtain working solutions, and a medium containing 0.1% of DMSO was adopted as a control group. The cell culture plate was taken out from the incubator, the medium was removed, and the working solutions and the control medium were added. The culture plate was placed back into the incubator and cultured under the conditions of 37° C. and 5% CO2 for 24 hrs. […]

BSEP mRNA in HepG2 cells = experiment: Relative expression of BSEP mRNA in HepG2 cells, EC50 (Experimental Example 3); assay type: cell-based; settings: Homo sapiens, 24 hrs
Procedure: as §1, §2
BSEP: bile salt export pump;
as §3, §4, §5

[1] = Liver microsome metabolism stability, human liver microsome; assay type: in vitro ADME; settings: 0.5 mg protein/mL, test sample 1 μM, β-NADPH
Procedure: (§6) Test samples: the homemade compounds 1, 2, 4 and 5 of the present invention (for their chemical names and preparation methods, see the preparation example for each compound).
(§7) a mixed liver microsomes of SD rat and human both purchased from XenoTech, with batch Nos.: 1410271 (SD rat) and 1410013 (human) respectively, wherein the microsomal protein concentrations both were 20 mg mL^−1;
(§8) experimental promoter β-NADPH purchased from Roche (batch No.: 524F0231); and a phosphate buffer solution (pH 7.4) made in the lab.
(§9) An appropriate amount of the test sample powder was weighed accurately, and dissolved in an appropriate amount of dimethyl sulfoxide (DMSO) to a concentration of 1 mM; and the solution was then diluted by 20 times with methanol to yield a 50 μM working solution.
(§10) (1) According to the proportions in table 3 “Composition of the incubation system for liver microsome metabolism stability experiment” above, for each compound, 6 mL of PBS (100 mM), 0.6 mL of MgCl2 solution (20 mM) and 3.66 mL of H2O were made into a mixed solution 1 for the incubation system (not containing the microsomes, the test sample and β-NADPH).
(§11) (2) Liver microsomes (20 mg protein/mL) were taken from a refrigerator (−80° C.), and were placed on a thermostatic water bath oscillator (37° C.) and pre-incubated for 3 mins.
(§12) (3) For each compound, 1.88 mL of the mixed solution 1 for the incubation system was added with 55 μL of microsomes to obtain a mixed solution 2 for the incubation system (not containing the test sample and β-NADPH).
(§13) (4) Sample group (containing the microsomes and D-NADPH): 616 μL of mixed solution 2 for the incubation system was added with 14 μL of the test sample working solution (with a concentration of 50 μM), and with 70 μL of R-NADPH working solution (10 mM). The resulted solution was well mixed, and the resulted solution was then duplicated. The time points of sampling were at 0 min, 5th min, 10th min, 20th min, 30th min and 60th min.
(§14) (5) Control group (containing the microsomes, and water instead of D-NADPH): 264 μL of mixed solution 2 for the incubation system was added with 6 μL of the test sample working solution (50 μM), and with 30 μL of water. The resulted solution was well mixed, and the resulted solution was then duplicated. The time points of sampling were at 0 min and 60th min.
(§15) (6) 50 μL of sample was taken from an incubating sample tube at each predetermined time point, added to a terminating sample tube (containing 300 μL of cold terminator), and vortexed; and the reaction was terminated.
(§16) (7) after 10 mins of vortexing, the solution was centrifuged for 5 mins (12,000 rpm).
(§17) (8) 100 μL of supernatant was taken and added with 100 μL of water, and the mixture solution was thoroughly vortexed; and the solution was then analyzed by LC-MS/MS.
(§18) Percentages of residual contents were calculated according to the following formula.

[2] = system: CYP7A1 mRNA in HepG2 cells; experiment: Relative expression of CYP7A1 mRNA in HepG2 cells, IC50 (Experimental Example 3); assay type: cell-based; settings: Homo sapiens, 24 hrs
Procedure: as §1, §2
CYP7A1: cholesterol 7-alpha hydroxylase;
as §3, §4, §5

SHP mRNA in AML12 cells = experiment: Relative expression of SHP mRNA in AML12 cells, EC50 (Experimental Example 4); assay type: cell-based; settings: Mus musculus, 24 hrs
Procedure: as §1
AML12 cells: mouse liver cells.
as §3
as §4, with “of 7.5×10^4” for “of 7.5×10^5”, “cells/mL; 1” for “cells/mL; 2”, “a 12-well” for “a 6-well”
The compound were diluted to 1000, 200, 8, 1.6, 0.32, 0.128, 0.0256 and 0.00512 μM with DMSO. Compound solutions of different concentrations obtained in the previous step were further diluted by 1000 times with media to obtain working solutions, and a medium containing 0.1% of DMSO was adopted as a control group. The cell culture plate was taken out from the incubator, the medium was removed, and the working solutions and the control medium were added. The culture plate was placed back into the incubator and cultured under the conditions of 37° C. and 5% CO2 for 24 hrs.
after treatment for 24 hrs, the cell culture plate was taken out from the incubator, and the medium was removed from the plate; the cells were rinsed three times with pre-cooled (4° C.) PBS (phosphate buffer solution); and 200 μL of pancreatin (preheated to 37° C.) was added to each well, and the plate was then gently shaken such that the pancreatin could evenly cover the plate bottom. The culture plate was then placed back into the incubator and incubated until the cells were separated from the plate bottom. 1 mL of medium was added to terminate digestion. […]

[3] = Liver microsome metabolism stability, rat liver microsome; assay type: in vitro ADME, SD rat; settings: 0.5 mg protein/mL, test sample 1 μM, β-NADPH
Procedure: as §6, §7, §8, §9, §10, §11, §12, §13, §14, §15, §16, §17, §18

EC50 (SHP mRNA in HepG2 cells): 0.09 nM
Residual content (%) after 60 minutes of incubation [1]: 96%
IC50 [2]: 0.02 nM
EC50 (SHP mRNA in AML12 cells): 0.89 nM
Residual content (%) after 60 minutes of incubation [3]: 73%
SMILES: O=C(O)c1cc(F)c2nc(N3C[C@@H]4C[C@H]3C[C@H]4OCc3c(-c4ccccc4OC(F)(F)F)noc3C3CC3)sc2c1 [Compound 8, 2-((1S, 4S, 5R)-5-((5-cyclopropyl-3-(2-(trifluoromethoxy)phenyl)isoxazol-4-yl)methoxy)-2-azabicyclo[2.2.1]heptan-2-yl)-4-fluorobenzo[d]thiazole-6-formic acid]
EC50 (BSEP mRNA in HepG2 cells): 0.35 nM
